In test [1] the target is T1, S100A9 (Mus musculus, UniProt P31725).
T1 construct: from tissue; host or cells: living mice (inflamed ear, joints) and explanted mouse heart, aorta and lungs
T1 sequence (P31725 2-113 limits assumed): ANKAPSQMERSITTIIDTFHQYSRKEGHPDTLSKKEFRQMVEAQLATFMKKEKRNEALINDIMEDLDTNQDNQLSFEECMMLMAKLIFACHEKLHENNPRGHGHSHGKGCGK
In words: Myocardial infarction mouse model, FRI of the explanted heart. Format: in vivo, C57BI/6 mouse. As to conditions: one day post LAD occlusion, two hours after i.v. injection of 2 nmol. On the procedure:
FIG. 7: Accumulation of Cy5.5-CES271 in a mouse model of myocardial infarction. One day post occlusion of the LAD in a C57BI/6 mouse: FRI of the explanted heart (longitudinal mid-infarction cut) two hours after i.v. injection of 2 nmol Cy5.5-CES271. […] Furthermore, absence of S100A9 in the remote myocardium (RM) is accompanied by the lack of Cy5.5-CES271.
Myocardial infarction was induced by opening the chest of a mouse and transient ligation of the left coronary artery for 60 minutes. The ischemic event triggers acute inflammatory response to the tissue injury in the first hours/days followed by a remodeling process (involving less intense inflammatory processes) after about one week. FRI was performed one day after the surgical intervention to assess the intense acute inflammatory response and the images in FIG. 7 were acquired two hours after injection of 2 nmol Cy5.5-CES-271. […] FRI of the explanted heart (longitudinal mid-infarction cut) two hours after i.v. injection of 2 nmol Cy5.5-CES271 is shown.

Test [2] concerns the target T1, S100A9. In words: Irritant contact dermatitis (ICD) mouse model, fluorescence reflectance imaging (FRI). As to conditions: FRI 3 h after tracer application. The test is classed as in vivo, mice. The source says:
FIG. 6: Accumulation of Cy5.5-CES271 in a mouse model of contact dermatitis (ICD). (A) FRI images showing accumulation of a quinoline-3-carboxamide compound covalently linked to a label (Cy5.5-CES271) in a mouse model of contact dermatitis of the left ear in WT (left) and S100A9 deficient (right) mice. (B) FRI images and S100A9 staining showing accumulation of a quinoline-3-carboxamide compound covalently linked to a label (Cy5.5-CES271) in a mouse model of contact dermatitis.
FIG. 21: FRI images of Cy5.5-CES271 and Cy7-CES271 in a mouse model of contact dermatitis (ICD). (A) Representative Fluorescence Reflectance images of a Cy7-CES271 and Cy5.5-aS100A9 coinjected animal.
In vivo fluorescence reflectance imaging was performed with an IVIS Spectrum small-animal imaging system (Xenogen). Images were acquired and analyzed using Living Image 4.X software (Xenogen). […] Fluorescence emission was measured by Fluorescence emission radiance per incident excitation irradiance (p/sec/cm2/sr/μW/cm2).
ICD was induced by the application of 20 μl 1% croton oil in olive oil-acetone (1:4) to the ventral surface of the left ear of mice for 24 h (n=5 per group), whereas the right ear served as a control. […] In the Cy7 channel the quantum yield is much lower compared to the Cy5.5 channel, which means that the recorded signal with Cy5.5-CES271 is higher than compared to […] (right image; FIG. 21). […]

On to “3-ethyl-2((1E,3E,5E)-5-(3-(1-(5-ethyl-4-hydroxy-1-methyl-2-oxo-1,2-dihydroquinolin-3-yl)-1,15-dioxo-2-phenyl-5,8,11-trioxa-2,14-diazanonadecan-19-yl)-1,1-dimethyl-6,8-disulfonato-1H-benzo[e]indol-2(3H)-ylidene)penta-1,3-dien-1-yl)-1,1-dimethyl-1H-benzo[e]indol-3-ium-6,8-disulfonate [Cy5.5-CES271]”, for which, in test [1], the “Accumulation in the myocardial infarction (MI)” value is given as “accumulates in the myocardial infarction” and the “Accumulation in the remote myocardium (RM)” value is “lack of Cy5.5-CES271 accumulation”. Besides, the “Accumulation in the inflamed ear” value in test [2] (S100A9−/− deficient mice) is recorded as “not observed”. The “Accumulation in the inflamed ear” value in test [2] (WT mice, croton oil on left ear) was “significant accumulation”.

For the origin of these results see patent publication US10350315B2, “Quinoline-3-carboxamide compounds and their use in diagnosis” (Westfaelische Wihelms-Universitaet Muenster, priority 2014, dated 2019).
